Results as given in US12090189B2, “Polypeptide inhibitor of de novo lipogenesis in cancer cells” (University of Florida Research Foundation, Inc., priority 2018, dated 2024).
Ends that are not written are not given here.

Tests used:
[1] = tested on: protein levels of ACC1, FAS and ACSS2; assay: Immunoblotting of MDA-MB-231-derived cells treated with mTOR inhibitor; format: cell-based, human; details: serum-starved 24 h, 0.1 μM for 5 h; for protein levels of ACC1, FAS and ACSS2: control or S671A-expressing cells
From the text: FIGS. 6A to 6H show mutation of DAXX phosphorylation sites disrupts DAXX-SREBP2 interaction, impairs lipogenesis and tumor growth. […] The GFP-wt DAXX was transfected alone in the absence of FLAG-SREBP2 as a control (lane 7). The lysates of transfected cells were subjected to IP with an anti-FLAG antibody. Both DAXX and FLAG-SREBP2 were detected in immunoprecipitates and input lysates. […] The precipitated DNAs were subjected to qPCR with primers specific to promoter regions of the indicated genes. qPCRs for the 3′ UTR of the FASN and ACACA genes serve as negative control. […] ATRX qRT-PCR serves as a control for genes not regulated by SREBPs. […] Cells were serum-starved for 24 h. DMSO or a mTOR inhibitor (0.1 μM final concentration) was added for 5 h before cell lysis. […] RNAs were isolated from cells cultured in serum-free DMEM for 24 h as in FIG. 6D.
For immunoblotting analyses of cell lysates of monolayer cultures, medium was removed from culture plates and 1× Passive Lysis buffer (Promega) was added. The plates were frozen at −80° C. overnight and then thawed at room temperature. The lysates were transferred to a centrifuge tube. To prepare tumor lysates, xenograft tumor tissues were fragmented in the presence of liquid nitrogen, approximately 50 mg of tumor fragment was homogenized in 1 mL of 1× RIPA lysis buffer on ice using a micro-homogenizer. After brief sonication at a low power output for 5 sec on ice, the lysates were cleared by centrifugation at 13,000 rpm for 15 min at 4° C. Protein contents were quantified using a Qubit protein assay kit. Protein extracts from cell culture or tumor lysates were subjected to SDS-PAGE and electro-blotting as above.

[2] = tested on: MDA-MB-231 and MDA-MB-468 cells; assay: Cell internalization of TAMRA-SIM2 by microscopy; format: cell-based, human; details: TAMRA-SIM2 1 μM, 1 hour
Description: FIGS. 18A to 18I show SIM2 peptide blocks lipogenesis. […] MDA-MB-231 and MDA-MB-468 cells were exposed to TAMRA-SIM2 (1 μM) for 1 hour and visualized by microscopy. […] Fluorescence polarization assay was performed in the presence of TAMRA-SIM2 and increased concentrations of SUMO1. FIGS. 18C-18H show SIM2 blocks de novo lipogenesis in MDA-MB-231 control or DAXX OE (FIG. 18C), MDA-MB-468 (FIG. 18D), Hs578T (FIG. 18E), HCT116 (FIG. 18F), 4T1 (FIG. 18G), and CT26.CL25 (FIG. 18H). Serum-starved cells were not treated (control) or exposed to SIM2 (10 μM) and labeled with [^14C] acetate. The levels of labeled lipids were quantified. […] MDA-MB-231 control and DAXX OE cell lines were untreated (control) or treated with SIM2 (10 μM). At 24 h after treatment, RNA was isolated and subject to qRT-PCR. RNA levels were normalized against that of ACTB. The p values shown are based on t-test.

[3] = Tolerability in tumor-bearing mice (body weights); format: in vivo; details: 25 mg/kg i.p. daily weekdays
Description: FIGS. 7A to 7E show the DAXX SIM2 peptide disrupts DAXX-SREBP interaction and suppresses tumor growth in vivo. […] The immunoprecipitates, input and supernatants were analyzed by immunoblotting. […] Mice were dosed i.p. daily weekdays for three weeks with vehicle or SIM2 (25 mg/kg). Longitudinal tumor volumes, mouse body weights, and endpoint tumor weights and images are shown. […] Protein extracts from three representative MDA-MB-231 xenograft tumors in vehicle and SIM2-treated mice were subjected to immunoblotting. HSP60 was detected as a loading control. […] Mice were dosed as in FIG. 7B. Longitudinal tumor volumes, mouse body weights, and endpoint tumor weights and tumor images are shown. […] Shown are a plot of a principal component analysis of lipid molecules detected by LC/MS, a heatmap of top lipid species, and bar graphs of relative abundance of the indicated lipid molecules. […] The p values were calculated based on Student's t-test. *: p<0.05; **: […].
For the in vivo SIM2 treatment study, MDA-MB-231 xenograft tumors were established as above and the mouse mammary tumor cell line 4T1 syngeneic tumors were established by transplanting one million cells in 100 μl of DMEM into mammary fat pads of female BALB/c mice. […] During the treatment, tumor dimensions and mouse body weights were recorded once weekly. […]

Compound: COc1ccc(-c2ccc3c(N4CCOC[C@@H]4C)nc(N4CCOC[C@@H]4C)nc3n2)cc1CO [AZD8055]
- protein levels of ACC1, FAS and ACSS2 [1]: Neither of these inhibitors had obvious effects

Compound: CO[C@H]1C[C@@H]2CC[C@@H](C)[C@@](O)(O2)C(=O)C(=O)N2CCCC[C@H]2C(=O)O[C@H]([C@H](C)C[C@@H]2CC[C@@H](OC(=O)C(C)(CO)CO)[C@H](OC)C2)CC(=O)[C@H](C)/C=C(\C)[C@@H](O)[C@@H](OC)C(=O)[C@H](C)C[C@H](C)/C=C/C=C/C=C/1C [temsirolimus]
- levels of ACC1 and FAS ([1]; cells expressing the S495A mutant): reduced levels of both ACC1 and FAS
- protein levels of ACC1, FAS and ACSS2 [1]: Neither of these inhibitors had obvious effects

Compound: DPEEIIVLSDSD [SIM2, DPEEIIVLSDSD]
- internalization into cells [2]: spontaneously and rapidly internalized into cells
- tolerability in vivo [3]: highly tolerated in vivo
